SMILES strings stand for the structures. Structures can show the parent of a compound that is named as a salt.

These results are taken from US20250255968A1, “INTRAVAGINAL DEVICES FOR DRUG DELIVERY” (priority 2011, published 2025).

Holding throughout (type): physicochemical
Series [1] is described as follows: In vitro release of IQP-0528 from hydrophobic tubing IVR. Conditions: for 30 days; core 48 wt % drug/52 wt % glycerol in Tecoflex EG85A tubing preloaded with 4.7 wt % drug. The source says: An IVR as described in Examples 1, 2, 3, and 9 is manufactured by premixing hydrophobic small molecule API (such as IQP-0528, UC-781, or levonorgestrel) with non-swellable polymer (such as Tecoflex®) and titanium dioxide. The tubing is then extruded as described above using a single screw extruder and tubing crosshead. The tubing may or may not incorporate reinforced/braided tubing or metallic springs to mechanically support the wall. The tubing is then filled with the API and excipient(s) mixture and joined to make a ring as described above. […] The core is composed of 48 wt % drug and 52 wt % glycerol paste filled in a hydrophobic tubing (Tecoflex® EG85A) preloaded with 4.7 wt % drug. In this example, approximately 600 μg of IQP-0528 was released daily for 30 days.

Series [2] is described as follows: In vitro drug release testing of dual-segment TFV/LNG IVR in aqueous buffer sink. Conditions: hydrophilic tubing reservoir segment of dual-segment IVR. The protocol: Example 29B. In a further example, a TFV/glycerol/water (65/33/2 wt %) semi-solid paste was loaded into the hydrophilic tubing reservoir segment and LNG was dissolved in the hydrophobic solid core reservoir segment of a dual segment IVR made according to Example 29A (using similar polyurethane tubing). The resulting IVR was subjected to in vitro drug release testing in an aqueous buffer sink for 90 days.

Series [3] in a line: In vitro TFV release from Tecophilic HP-60D-35 IVR with or without osmotic agent glycerol. The protocol: (§1) In vitro tenofovir (TFV) release and IVR mechanical studies were conducted to evaluate device performance. IVRs were incubated in pH 4.2 sodium acetate buffer and placed in a 37° C., 80 rpm shaker for up to 120 days. Sink conditions were maintained throughout the entire experiment, and release media was changed daily. Quantification of amount of TFV released was determined using high performance liquid chromatography (HPLC) (aqueous mobile phase gradient method on reverse phase C18 column, Agilent 1200 series HPLC). Mechanical properties of the rings over time were measured by compressing rings 25% of their initial outer diameter at a rate of 1 mm/sec using an Instron 3342 mechanical testing system (Norwood, MA) with custom machined aluminum probe. The TFV release rapidly attained steady-state, and release was dependent on polymer equilibrium swelling. The 35 wt % polymer was able to maintain steady-state release through 105 days. Also, the ring mechanical properties changed little with time, even after all drug was released. (See FIG. 2.)

Series [4] is described as follows: In vitro TFV release from IVR with drug-impregnated polymeric core. Conditions: HPU 60/TFV (40% w/w) core jacketed with HPU 20/TFV (5% w/w); sodium acetate buffer pH 4.2, 37° C., 77 days, after initial burst. The source says: The HPU 20/TFV was used to jacket HPU 60/TFV using a twin-screw extruder and crosshead die. Reservoir rods were cut to approximately 14 cm sections, of which the ends were joined using an O-ring butt-welding clamp and medical grade Tecoflex® 1-MP fast-crystallization polyurethane adhesive, (200-300 cps viscosity, solution of polyurethane based polymer in methyl ethyl ketone and methylene chloride) resulting in a ring with 50-60 mm outer diameter and 5-6 mm outer cross-sectional diameter. […] Several of these IVRs were incubated at 37° C. and in sodium acetate buffer (pH 4.2) for 77 days. Sink conditions were maintained throughout the entire experiment. […] (See FIG. 5.)

Series [5] is described as follows: In vitro release of EVG, DPV and TFV from hydrophilic polyurethane tubing reservoir rings. Conditions: for TFV steady-state release rate: in presence of DPV or EVG. The source says:
Elvitegravir (EVG), TFV, and glycerol (63/5/32 wt % TFV/EVG/glycerol-water, where glycerol was premixed as a 33/2 wt % stock solution) was loaded into the lumen of 35 wt % swelling hydrophilic polyurethane single-segment tubing with 5.5 mm cross-sectional diameter and 0.7 mm wall thickness. […] Similarly, dapivirine (DPV) was formulated in various equilibrium swelling hydrophilic polyurethane tubing lumens (all with 5.5 mm cross-sectional diameter and 0.7 mm wall thickness) at 63/5/32 wt % TFV/DPV/glycerol-water (mean±SD, N=5). […] Both DPV and EVG rings described above were tested for in vitro release immediately after ring fabrication. It is known from above examples, as well as previously published work that amphiphilic and lipophilic compounds including DPV often are soluble in polyurethanes up to 20 wt %. Therefore, a ring delivering hydrophobic APIs, such as EVG or DPV, should show little or no lag time in releasing the drug after adequate storage time, since the API should partition into the tubing wall on ring storage. TFV release from HTPU 35 and 60% swelling rings was not noticeably affected by the presence of DPV and EVG (TFV steady-state release rates were approximately 13 and 22 mg/day, respectively).

Series [6] is described as follows: In vitro tenofovir release from single-segment reservoir IVR (HPLC). Conditions: 35 wt % swelling Tecophilic HP-60D tubing IVR, TFV/glycerol 70/30 wt % core; pH 4.2 sodium acetate buffer, 37° C., 80 rpm. The protocol: as §1
Series [7] is described as follows: TDF release from HydroThane IVR after storage at elevated temperature. How it is done:
As a means of diminishing or eliminating API release lag-time, devices may be stored at elevated temperature ranging from 40° C. to 70° C., depending on drug stability, for a predetermined amount of time to accelerate diffusion of the API from the tubing lumen to the tubing wall. After a predetermined time/temperature storage, the API loading in the device wall be equilibrated and the device will show minimal or no lag-time in drug release. This approach works for APIs which show some solubility in the rate-controlling polymer. Also, in certain instances this approach may negate the need for an osmotic agent. […] The IVRs are incubated at elevated temperatures, for example 65° C. for 5 days. […] This minimal amount of TDF in tubing wall reduced the lag time for equilibrium drug release and about 2-3 mg of TDF was delivered on days 1-3.

In the case of `Cc1cc(C)cc(C(=O)c2c(C(C)C)c(=O)[nH]c(=O)n2CC2CC2)c1` [IQP-0528], the IQP-0528 released daily result in series [1] is recorded as “approximately 600 μg”.
In the case of `C[C@H](Cn1cnc2c(N)ncnc21)OCP(=O)(O)O` [TFV, ({[(2R)-1-(6-amino-9H-purin-9-yl)propan-2-yl]oxy}methyl)phosphonic acid], the “lag period before zero-order TFV release” value in series [2] worked out at 1 days. Further, the TFV release profile result in series [2] (TFV/glycerol/water 65/33/2 wt % paste, 90 days) is “Zero-order release”; in series [4] it was “zero-order fashion”. In addition, the “time to steady state TFV release rate” value in series [3] (65/33/2 wt % TFV/glycerol/water paste (glycerol 33 wt %)) is no more than 3 days; in series [3] (100% TFV powder in the core), greater than 28 days. Also, the “TFV steady-state release rate” value in series [5] (HTPU 35% swelling rings) is recorded as “approximately 13 mg/day”; in series [5] (HTPU 60% swelling rings), roughly 22 mg/day. Also, the “duration of maintained steady-state TFV release” value in series [6] was found to be 105 days.
As to `CC(C)OC(=O)OCOP(=O)(CO[C@H](C)Cn1cnc2c(N)ncnc21)OCOC(=O)OC(C)C` [TDF, tenofovir disoproxil fumarate], the “TDF concentration in tubing wall” value in series [7] (HydroThane 25-93A IVR, TDF + sodium chloride (15 wt % of TDF), incubated 65° C. for 5 days) was 5 mg/g polymer. In series [7] (on days 1-3, after 65° C. storage for 5 days), this molecule registered a TDF delivered of 2 to 3 mg.
Regarding `COc1cc2c(cc1Cc1cccc(Cl)c1F)c(=O)c(C(=O)O)cn2[C@H](CO)C(C)C` [EVG, Elvitegravir], the EVG release rate entry in series [5] (for 28 days, unstored rings, 35 wt % swelling hydrophilic polyurethane tubing, 63/5/32 wt % TFV/EVG/glycerol-water) is recorded as “over 300 μg/day”. For the same molecule, the EVG lag time result in series [5] (unstored rings, 35 wt % swelling hydrophilic polyurethane tubing) was “several-day lag time”.
As to `Cc1cc(C)c(Nc2ccnc(Nc3ccc(C#N)cc3)n2)c(C)c1` [DPV, dapivirine], the DPV lag time entry in series [5] (various hydrophilic polyurethane rings, tested immediately after fabrication) is reported as “approximately two weeks”.
